This is an account of results in publication PMC7160673, “A Degenerate Peptide Library Approach to Reveal Sequence Determinants of Methyllysine-Driven Protein Interactions” (Frontiers in Cell and Developmental Biology, 2020).

Assay type in all cases: binding
In one assay the test system is CST 9733 (anti-H3K27me3). Briefly: Histone peptide microarray, CST 9733. To be noted: histone peptide array signal normalized to the highest peptide average per subarray, hits; CST 9733 LOT:14 dilution 1:5,000.
The next assay has as its system 53BP1 TTD. Briefly: Histone peptide microarray, 53BP1 TTD. The conditions noted are these: 53BP1 TTD hits, average signal per peptide. In outline:
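Binding of protein or antibody to arrayed histone peptides read by AlexaFluor 647 fluorescence, with anti-GST primary (1:2,000) and labelled secondary (1:5,000) for GST-fused domain. Hybridisations in HEPES pH 7.5 buffer with 100 mM NaCl, 0.5% BSA and 0.1% NP-40; triple PBS-Tween washes between steps.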

The test system of assay [1] is Active Motif #39161, anti-H3K9me3. Briefly: Histone peptide microarray, Active Motif 39161. The conditions noted are these: Active Motif 39161 (anti-H3K9me3) hits.
Assay [2] deals with ABClonal #A2355, anti-H3K4me1. Briefly: Histone peptide microarray, ABclonal A2355. To be noted: Abclonal A2355 (anti-H3K4me1) hits. On the procedure:
(§1) Peptide microarrays were fabricated using an Aushon 2470 microarrayer and used as described ([Cornett et al., 2017]) with the following modifications. Protein and antibody hybridization steps were performed in buffer containing 25 mM HEPES pH 7.5, 100 mM NaCl, 0.5% BSA (w/v), and 0.1% NP-40. Slides were washed 3 × 5 min in PBS supplemented with 0.1% Tween-20 between each hybridization step. Antibodies used were primary anti-GST (Sigma #7781, 1:2,000 dilution) and an AlexaFluor 647-labeled secondary antibody (Life Technologies A-21245, 1:5,000 dilution). […] Full lists of peptides queried by array analysis are in Supplementary Table S2.

Assay [3] relates to Millipore #07-449, anti-H3K27me3. Briefly: Histone peptide microarray, Millipore 07-449. To be noted: Millipore 07-449 (anti-H3K27me3) hits, average signal per peptide.
Assay [4] relates to Abcam #ab8895, anti-H3K4me1. Briefly: Histone peptide microarray, Abcam ab8895. To be noted: Abcam ab8895 (anti-H3K4me1) hits, average signal per peptide.
A further assay concerns the target T1, CDYL2 chromo (Homo sapiens, UniProt Q8N8U2).
T1 construct: 1-75; made in house; host or cells: E. coli BL21
T1 sequence (Q8N8U2 1-75): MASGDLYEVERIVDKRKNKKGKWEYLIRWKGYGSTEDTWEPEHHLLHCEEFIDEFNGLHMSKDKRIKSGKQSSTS
Briefly: Histone peptide microarray, CDYL2 chromo. The conditions noted are these: normalized histone peptide array signal, hits; hybridization with 1 M CDYL2 chromo (so in the source); two subarrays. On the procedure:
as §1

For another assay, the target named is T2, MPP8 chromo (Homo sapiens, UniProt Q99549).
T2 construct: 50-118; made in house; host or cells: E. coli BL21
T2 sequence (Q99549 50-118): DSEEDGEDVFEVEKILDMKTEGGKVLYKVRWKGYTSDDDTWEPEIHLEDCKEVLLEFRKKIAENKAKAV
Briefly: Histone peptide microarray, MPP8 chromo. The conditions noted are these: normalized histone peptide array signal, hits; hybridization with 1 M MPP8 chromo (so in the source); two subarrays. On the procedure:
as §1

On to “ACitTK(Me2)QTARKSTGGKAPRKQL-K(Biot)-NH2 [H3.1Cit2K4me2]”, for which the “Avg Signal” value with CST 9733 (anti-H3K27me3) is on record as 0.0001108; in the assay with 53BP1 TTD it was 0.6324; in assay [1] it was 2.176e-5; in assay [2] it was 0.3053; in assay [3] it was 0.002853; in assay [4] it was 0.2048.

For the substance “AGGK(Ac)AGK(Ac)DSGK(Ac)AKAKAVSR-Peg-Biot [H2A.Z.2K4acK7acK11ac]”, the results for the “Avg Signal” value (in assay [1]; on CDYL2 chromo; in assay [3]) were 0.02451, 0.04723 and 0.003296, respectively.

For “AR(Me2a)TK(Me3)QTARK(Ac)STGGK(Ac)APRK(Ac)QL-K(Biot)-NH2 [H3.1R2me2aK4me3K9acK14acK18ac]”, the “Avg Signal” value in the assay with CST 9733 (anti-H3K27me3) is recorded as 0.007631; with 53BP1 TTD it was 0.02297; in assay [1], 0.01091; in assay [2], 0.01872; in assay [3], 0.02578; in assay [4], 0.04451.

On to “ARTAQTARK(Me2)STGGKA-Peg-Biot [Peptide H3.1K4AK9me2]”, for which the “Avg Signal” value in assay [1] came to 0.007885; at MPP8 chromo, 0.07994.

As to “ARTK(Ac)QTARK(Me2)STGGK(Ac)APRK(Ac)QL-K(Biot)-NH2 [H3.1K4acK9me2K14acK18ac]”, the “Avg Signal” value with CST 9733 (anti-H3K27me3) was found to be 3.787e-5; in the assay on 53BP1 TTD, 0.5858; in assay [3] it was 0.005667; at MPP8 chromo, 0.2405; in assay [4] it was 0.0002166.

On to “ARTK(Ac)QTARK(Me3)STGGK(Ac)APRK(Ac)QL-K(Biot)-NH2 [H3.1K4acK9me3K14acK18ac]”, for which the “Avg Signal” value with CST 9733 (anti-H3K27me3) is 0.01317; in the assay on 53BP1 TTD, 0.09657; in assay [1] it was 0.7316; at CDYL2 chromo, 0.3091; in assay [3], 0.04004; on MPP8 chromo, 0.4242.

Take “ARTK(Ac)QTARK(Me3)STGGKAPRKQL-K(Biot)-NH2 [H3.1K4acK9me3]”: the “Avg Signal” value in the assay on CST 9733 (anti-H3K27me3) amounted to 0.00836; in assay [1] it was 0.7317; on CDYL2 chromo, 0.363; in assay [3], 0.01932; on MPP8 chromo, 0.6556.

On to “ARTK(Ac)QTARK(Me)STGGK(Ac)APRK(Ac)QL-K(Biot)-NH2 [H3.1K4acK9me1K14acK18ac]”, for which the “Avg Signal” value in the assay on 53BP1 TTD is listed as 0.1278; in assay [3] it was 0.004673; at MPP8 chromo, 0.07749; in assay [4], 0.5059.

“ARTK(Me3)QTAR(Me2a)K(Me3)STGGKAPRKQL-K(Biot)-NH2 [H3.1K4me3R8me2aK9me3]”: the “Avg Signal” value worked out at 0.01316 in the assay on CST 9733 (anti-H3K27me3); 0.5927 in assay [1]; 0.3995 at CDYL2 chromo; 0.06329 in assay [3]; 0.8021 on MPP8 chromo.

With “ARTK(Me3)QTARK(Me2)STGGKA-Peg-Biot [H3.1K4me3K9me2]”, the “Avg Signal” value in the assay with CST 9733 (anti-H3K27me3) was 0.005297; in assay [1], 0.02282; on CDYL2 chromo, 0.1809; in assay [3], 0.04855; on MPP8 chromo, 0.4645; in assay [4], 0.004396.

On to “ARTK(Me3)QTARKSTGGKAPRK(Ac)QL-K(Biot)-NH2 [H3.1K4me3K18ac]”, for which the “Avg Signal” value with CST 9733 (anti-H3K27me3) came to 0.006885; in the assay on 53BP1 TTD it was 0.08895; in assay [1] it was 0.09175; in assay [2], 0.001684; in assay [3] it was 0.03479; in assay [4] it was 0.01446.

On to “ARTKQTAR(Me2a)K(Me2)STGGKAPRKQL-K(Biot)-NH2 [H3.1R8me2aK9me2]”, for which the “Avg Signal” value in the assay on CST 9733 (anti-H3K27me3) stood at 0.0007823; in the assay with 53BP1 TTD, 0.547; in assay [1], 0.006391; on CDYL2 chromo it was 0.1889; on MPP8 chromo it was 0.6312; in assay [4], 0.1269.

With “ARTKQTAR(Me2a)K(Me)STGGKAPRKQL-K(Biot)-NH2 [H3.1R8me2aK9me1]”, the “Avg Signal” value is recorded as 0.1501 in the assay on 53BP1 TTD; 0.00542 in assay [1]; 0.006716 in assay [2]; 0.4258 on MPP8 chromo; 0.513 in assay [4].

On to “ARTKQTAR(Me2s)K(Me2)STGGKAPRKQL-K(Biot)-NH2 [H3.1R8me2sK9me2]”, for which the “Avg Signal” value was 0.0002216 in the assay on CST 9733 (anti-H3K27me3); 0.3791 with 53BP1 TTD; 0.1904 at CDYL2 chromo; 0.6538 on MPP8 chromo; 0.1111 in assay [4].

As to “ARTKQTAR(Me2s)K(Me3)STGGKAPRKQL-K(Biot)-NH2 [H3.1R8me2sK9me3]”, the “Avg Signal” value with CST 9733 (anti-H3K27me3) is listed as 0.01037; in the assay with 53BP1 TTD, 0.1271; in assay [1], 0.5557; on CDYL2 chromo, 0.3941; in assay [3], 0.05357; at MPP8 chromo, 1. In assay [4], the “Avg Signal” value turned out to be 0.1225.

Take “ARTKQTAR(Me2s)K(Me)STGGKAPRKQL-K(Biot)-NH2 [H3.1R8me2sK9me1]”: the “Avg Signal” value in the assay on CST 9733 (anti-H3K27me3) was 0.01277; in the assay with 53BP1 TTD, 0.2791; in assay [1], 0.003577; at MPP8 chromo it was 0.1744; in assay [4], 0.3635.

Take “ARTKQTARK(Me2)STGGKAPRKQL-K(Biot)-NH2 [H3.1K9me2 H3.1(1-20)]”: the “Avg Signal” value in the assay with CST 9733 (anti-H3K27me3) came to 0.0005298; at CDYL2 chromo, 0.2996; at MPP8 chromo it was 0.7317.

With “ARTKQTARK(Me3)pSTGGKAPRKQL-K(Biot)-NH2 [H3.1K9me3S10p]”, the “Avg Signal” value in the assay with 53BP1 TTD was 0.1329; in assay [1] it was 0.1411; in assay [3] it was 0.03312; at MPP8 chromo it was 0.04961; in assay [4], 0.1409.

Regarding “ARTKQTARK(Me)STGGKAPRKQL-K(Biot)-NH2 [Peptide H3.1K9me1]”, the “Avg Signal” value was determined as 0.2555 in the assay on 53BP1 TTD; 0.000221 in assay [1]; 0.001651 in assay [3]; 0.4905 in the assay with MPP8 chromo; 0.4772 in assay [4].

Regarding “Ac-APRKQLATK(Me3)AARKSAPATGG-Peg-K(Biot)-NH2 [Peptide H3.1K23me3]”, the “Avg Signal” value in the assay on CST 9733 (anti-H3K27me3) is 5.2822e-5; in assay [1], 0.01355; in assay [3], 0.005165; on MPP8 chromo it was 0.09452.

With “Ac-APRKQLATKAARK(Me2)SAPSTGG-Peg-Biot [Peptide H3.3K27me2]”, the “Avg Signal” value in the assay with CST 9733 (anti-H3K27me3) amounted to 0.0115; in the assay on 53BP1 TTD, 0.3374; at CDYL2 chromo it was 0.08888; in assay [3], 0.003304; in assay [4], 0.0005313.

As for “Ac-APRKQLATKAARK(Me3)SAPSTGG-Peg-Biot [Peptide H3.3K27me3]”, the “Avg Signal” value in the assay on CST 9733 (anti-H3K27me3) worked out at 1; in the assay on 53BP1 TTD, 0.04567; in assay [1], 0.01689; on CDYL2 chromo it was 0.1275; in assay [3] it was 0.2205.

For the substance “Ac-SGRGK(Me)GGK(Ac)GLGK(Me)GGAKRHRKVLR-Peg-Biot [H4K5me1K8acK12me1]”, the “Avg Signal” value was determined as 0.03017 in assay [1]; 0.01549 in assay [2]; 0.001936 in assay [3]; 0.009322 at MPP8 chromo; 0.02853 in assay [4].

For “Ac-SGRGK(Me)GGK(Me)GLGK(Me)GGAKRHRKVLR-Peg-Biot [H4K5me1K8me1K12me1]”, the “Avg Signal” value amounted to 0.004623 in assay [1], 0.1176 in assay [2], 0.4707 at CDYL2 chromo and 0.06188 in assay [4].

Turning to “Ac-SGRGKGGKGLGKGGAK(Ac)RHRK(Ac)VLR-Peg-Biot [Peptide H4K16acK20ac]”, the “Avg Signal” value in assay [1] is recorded as 0.03564; in assay [2], 0.000726; on CDYL2 chromo it was 0.04591; in assay [3], 0.001622; in assay [4], 0.002797.
